Experimental data taken from the supplement of paper PMC10477900.
Structures can show the parent of a compound that is named as a salt.

Experiments:
[1] = tested on: HCT116; settings: 72 h
Experimental: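 HCT116 control and MTA1-KO (CRISPR) HCT116 cells were seeded in 384-well plates (800 cells/well), treated 16 h later with 237 metabolism-related anticancer drugs at five doses (10 uM, 2 uM, 400 nM, 80 nM, 16 nM) for 72 h, two replicates; viability by CCK8. Values are % inhibition of viability relative to untreated cells, plus fitted IC50.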

[2] = tested on: HCT116; test: viability inhibition vs untreated; higher = more cytotoxic; settings: 72 h

SMILES	IC50 ([1]; genotype: MTA1-KO) [µM]	IC50 ([1]; genotype: control) [µM]	viability inhibition ([2]; genotype: MTA1-KO, 16 nM) [%]	viability inhibition ([2]; genotype: MTA1-KO, 80 nM) [%]	viability inhibition ([2]; genotype: MTA1-KO, 400 nM) [%]	viability inhibition ([2]; genotype: MTA1-KO, 2000 nM) [%]	viability inhibition ([2]; genotype: MTA1-KO, 10000 nM) [%]	viability inhibition ([2]; genotype: control, 16 nM) [%]	viability inhibition ([2]; genotype: control, 80 nM) [%]	viability inhibition ([2]; genotype: control, 400 nM) [%]	viability inhibition ([2]; genotype: control, 2000 nM) [%]	viability inhibition ([2]; genotype: control, 10000 nM) [%]
CC(C)[C@]12O[C@H]1[C@@H]1O[C@]13[C@]1(O[C@H]1C[C@H]1C4=C(CC[C@@]13C)C(=O)OC4)[C@@H]2O [Triptolide]	< 0.016	< 0.016	58.4	92.8	88.9	90.8	92.2	67.7	105	90.1	89.5	91.8
NS(=O)(=O)c1ccc(NC(=O)Nc2ccc(F)cc2)cc1 [U104]	> 10	> 10	-21.7	-21.1	-25.6	-26.9	-10.5	-3.77	-10.5	-6.63	-1.16	4.44
N#C/C(=C\c1cn(-c2ccccc2)c2ccccc12)C(=O)O [UK5099]	> 10	> 10	12.9	-2.58	-5.75	-0.99	14	8.77	3.74	4.2	20.2	40
NC(N)=O [Urea]	> 10	> 10	-19	-12.8	-10.1	-15.4	-12.3	5.26	1.82	-7.36	3.6	-3.54
COc1cccc(-c2ccc(NC(=O)C3=C(C(=O)O)CCC3)c(F)c2)c1 [Vidofludimus]	7.17	8.85	16.3	14.4	15.2	18.4	72.5	14.5	16.4	19.6	28.3	60.9
CNC(=O)c1cccc(-c2ccc3c(N4CCOC[C@@H]4C)nc(N4CCOC[C@@H]4C)nc3n2)c1 [Vistusertib]	0.189	0.319	16.2	29.8	63.1	83.3	76.2	-6.57	-15	45.6	74.4	69.9
CNCc1cc(-c2ccccc2F)n(S(=O)(=O)c2cccnc2)c1 [Vonoprazan fumarate]	> 10	> 10	12	-19.8	-19.3	-21.7	-12.1	-12.5	-10.5	-14.4	-16	11.8
COc1cc(Nc2nc3ccccc3nc2NS(=O)(=O)c2ccc(NC(=O)c3ccc(C)c(OC)c3)cc2)cc(OC)c1 [Voxtalisib Analogue]	> 10	> 10	-13.9	-7.35	-17	-3.38	24.9	-7.04	-8.31	-4.56	-7.36	5.96
CCn1c(=O)c(-c2ccn[nH]2)cc2c(C)nc(N)nc21 [Voxtalisib]	2.36	5.49	5.96	-3.02	6.24	35.5	72.3	8.11	25.4	16.1	37.2	70.3
COC(=O)Nc1ccc(-c2nc(N3CCOCC3)c3cnn(C4CCN(C(=O)OC)CC4)c3n2)cc1 [WYE354]	2.79	> 10	2.45	-4.99	-5.74	4.61	59.8	-11.9	-23.4	-20.1	-21.3	40.4
CCC(=O)Nc1cccc(Oc2nc(Nc3ccc(N4CCN(C)CC4)cc3OC)ncc2Cl)c1 [WZ4003]	> 10	> 10	-5.75	-20	-8	-5.19	8.72	8.56	-15.4	-4.38	-7.1	12.2
O=C(Oc1cccc(F)c1OC(=O)c1cccc(O)c1)c1cccc(O)c1 [WZB117]	> 10	> 10	1.38	-12.9	-10.3	-1.16	12.7	-23.3	-8.87	-3.93	-25.9	-15
O=c1[nH]c(-c2ccc(C(F)(F)F)cc2)nc2c1CSCC2 [XAV939]	> 10	> 10	1.12	-14.7	-18	-23.8	-14.9	4.99	12.8	0.365	4.5	0.791
Cc1c(C(=O)N2CCOc3ccc(-c4ccc(N)nc4)cc3C2)ccc(S(C)(=O)=O)c1F [XL388]	4.64	> 10	-7.29	5.97	0.224	19	74.8	0.193	-2.53	-7.3	-11.7	47
NS(=O)(=O)Cc1noc2ccccc12 [Zonisamide]	> 10	> 10	2.91	-1.38	-4.06	-5.28	-6.62	-7.18	-18.6	2.58	2.07	31.7
CO[C@H]1C[C@@H]2CC[C@@H](C)[C@@](O)(O2)C(=O)C(=O)N2CCCC[C@H]2C(=O)O[C@H]([C@H](C)C[C@@H]2CC[C@H](n3cnnn3)[C@H](OC)C2)CC(=O)[C@H](C)/C=C(\C)[C@@H](O)[C@@H](OC)C(=O)[C@H](C)C[C@H](C)/C=C/C=C/C=C/1C [Zotarolimus]	2.07	> 10	5.1	-1.86	2.56	34.7	69.3	-4.9	-11.3	-9.38	-17.6	9.36
C/C=C/c1cc(OC)c(OC)cc1OC [alpha-Asarone]	> 10	> 10	-3.55	-23.5	-15.1	-10.5	9.18	-6.36	-8.84	-15.6	-8.42	-0.859
